Patent publication US8492371B2, “Compounds as cannabinoid receptor ligands” (priority 2009, dated 2013)
Like-named read-outs stand apart in the source and are kept apart here.

Assays:
human CB2 receptors = molecular target: T1, human CB2 receptors (Homo sapiens, UniProt P34972); assay: Human CB2 radioligand binding assay ([3H]CP-55,940 competition)
T1 construct: expressed in transfected cells; host or cells: HEK293
In short: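 Membranes from HEK293 cells stably expressing human CB2 (5 μg/well) incubated 90 min at 30 °C with 0.5 nM [3H]CP-55,940 and five concentrations of displacer (0.01 nM–10 μM) in pH 7.4 Tris/EDTA/MgCl2 buffer with fatty acid free BSA. Bound radioactivity counted after filtration; nonspecific binding defined with 10 μM unlabeled CP-55,940.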

rat CB2 receptors = molecular target: T2, rat CB2 receptors (Rattus norvegicus, UniProt Q9QZN9); assay: Rat CB2 radioligand binding assay ([3H]CP-55,940 competition)
T2 construct: expressed in transfected cells; host or cells: HEK293
T2 sequence (Q9QZN9 1-360): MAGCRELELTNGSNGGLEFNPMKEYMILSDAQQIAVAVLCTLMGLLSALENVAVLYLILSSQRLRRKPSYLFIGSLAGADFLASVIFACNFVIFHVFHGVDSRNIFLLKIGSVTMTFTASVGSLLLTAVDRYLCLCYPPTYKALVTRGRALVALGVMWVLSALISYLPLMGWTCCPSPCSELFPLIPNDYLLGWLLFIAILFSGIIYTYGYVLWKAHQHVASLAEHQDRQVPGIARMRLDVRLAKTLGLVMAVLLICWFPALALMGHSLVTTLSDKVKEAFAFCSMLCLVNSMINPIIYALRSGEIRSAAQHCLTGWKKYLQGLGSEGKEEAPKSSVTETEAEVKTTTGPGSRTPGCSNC
In short: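 Membranes from HEK293 cells stably expressing rat CB2 (20 μg/well) incubated 45 min at 30 °C with 0.5 nM [3H]CP-55,940 and five competitor concentrations in Tris/EDTA/MgCl2 buffer with 0.5 mg/mL BSA, pH 7.4. Filtration and scintillation counting; nonspecific binding with 10 μM unlabeled CP-55,940.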

T1 sequence (P34972 whole entry): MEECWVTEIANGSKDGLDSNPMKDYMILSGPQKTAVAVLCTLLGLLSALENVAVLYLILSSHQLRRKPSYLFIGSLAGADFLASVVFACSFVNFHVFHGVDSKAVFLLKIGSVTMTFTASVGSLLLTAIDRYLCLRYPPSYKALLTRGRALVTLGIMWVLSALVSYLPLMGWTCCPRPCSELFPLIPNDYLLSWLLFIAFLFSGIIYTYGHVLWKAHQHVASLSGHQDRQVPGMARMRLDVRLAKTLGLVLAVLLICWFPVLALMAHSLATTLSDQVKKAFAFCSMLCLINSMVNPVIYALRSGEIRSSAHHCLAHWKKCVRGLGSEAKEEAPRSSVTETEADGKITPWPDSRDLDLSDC

Cn1c(C(C)(C)C)c/c(=N\C(=O)c2cc(C(F)(F)F)ccc2/C=C/C(C)(C)O)n1C[C@H]1CCCO1 [Example 100, N-{(3E)-5-tert-butyl-1-methyl-2-[(2R)-tetrahydrofuran-2-ylmethyl]-1,2-dihydro-3H-pyrazol-3-ylidene}-2-[(1E)-3-hydroxy-3-methylbut-1-enyl]-5-(trifluoromethyl)benzamide]
Ki (human CB2 receptors): 0.0032 µM | Ki (rat CB2 receptors): 0.0011 µM

Cn1c(C(C)(C)C)c/c(=N\C(=O)c2cc(C(F)(F)F)ccc2CCC(C)(C)O)n1C[C@H]1CCCO1 [Example 101, N-{(3E)-5-tert-butyl-1-methyl-2-[(2R)-tetrahydrofuran-2-ylmethyl]-1,2-dihydro-3H-pyrazol-3-ylidene}-2-(3-hydroxy-3-methylbutyl)-5-(trifluoromethyl)benazmide]
Ki (human CB2 receptors): 0.049 µM | Ki (rat CB2 receptors): 0.034 µM

Cn1c(C2(C)CC2)c/c(=N\C(=O)c2cc(C(F)(F)F)ccc2OCC2(O)CCC2)n1C[C@H]1CCCO1 [Example 102, 2-[(1-hydroxycyclobutyl)methoxy]-N-{(3E)-1-methyl-5-(1-methylcyclopropyl)-2-[(2 R)-tetrahydrofuran-2-ylmethyl]-1,2-dihydro-3H-pyrazol-3-ylidene}-5-(trifluoromethyl)benzamide]
Ki (human CB2 receptors): 0.021 µM | Ki (rat CB2 receptors): 0.011 µM

Cn1c(C(C)(C)C)c/c(=N\C(=O)c2cc(O)cc(C(F)(F)F)c2)n1C[C@H]1CCCO1 [Example 103, N-{(3E)-5-tert-butyl-1-methyl-2-[(2R)-tetrahydrofuran-2-ylmethyl]-1,2-dihydro-3H-pyrazol-3-ylidene}-3-hydroxy-5-(trifluoromethyl)benzamide]
Ki (human CB2 receptors): 0.016 µM | Ki (rat CB2 receptors): 0.0044 µM

Cn1c(C(C)(C)C)c/c(=N\C(=O)c2cc(Br)cc(C(F)(F)F)c2)n1C[C@H]1CCCO1 [Example 104, 3-bromo-N-{(3E)-5-tert-butyl-1-methyl-2-[(2R)-tetrahydrofuran-2-ylmethyl]-1,2-dihydro-3H-pyrazol-3-ylidene}-5-(trifluoromethyl)benzamide]
Ki (human CB2 receptors): 0.046 µM | Ki (rat CB2 receptors): 0.0093 µM

Cn1c(C(C)(C)C)c/c(=N\C(=O)c2cc(OCCF)cc(C(F)(F)F)c2)n1C[C@H]1CCCO1 [Example 105, N-{(3E)-5-tert-butyl-1-methyl-2-[(2R)-tetrahydrofuran-2-ylmethyl]-1,2-dihydro-3H-pyrazol-3-ylidene}-3-(2-fluoroethoxy)-5-(trifluoromethyl)benazmide]
Ki (human CB2 receptors): 0.069 µM | Ki (rat CB2 receptors): 0.01 µM

Cn1c(C(C)(C)C)c/c(=N\C(=O)c2cc([N+](=O)[O-])cc(C(F)(F)F)c2)n1C[C@H]1CCCO1 [Example 106, N-{(3E)-5-tert-butyl-1-methyl-2-[(2R)-tetrahydrofuran-2-ylmethyl]-1,2-dihydro-3H-pyrazol-3-ylidene}-3-nitro-5-(trifluoromethyl)benzamide]
Ki (human CB2 receptors; HEK293 membranes, 0.5 nM [3H]CP-55,940, read-out: human CB2 Ki): 0.168 µM | Ki (rat CB2 receptors): 0.063 µM

Cn1c(C(C)(C)C)c/c(=N\C(=O)c2cc(N)cc(C(F)(F)F)c2)n1C[C@H]1CCCO1 [Example 107, 3-amino-N-{(3E)-5-tert-butyl-1-methyl-2-[(2R)-tetrahydrofuran-2-ylmethyl]-1,2-dihydro-3H-pyrazol-3-ylidene}-5-(trifluoromethyl)benzamide]
Ki (human CB2 receptors): 0.011 µM | Ki (rat CB2 receptors): 0.0048 µM

CN(C)CCOc1ccc(C(F)(F)F)cc1C(=O)/N=c1\oc(C(C)(C)C)cn1C[C@H]1CCCO1 [Example 108, N-[(2Z)-5-tert-butyl-3-[(2R)-tetrahydrofuran-2-ylmethyl]-1,3-oxazol-2(3 H)-ylidene]-2-[2-(dimethylamino)ethoxy]-5-(trifluoromethyl)benzamide]
Ki (human CB2 receptors): 0.148 µM | Ki (rat CB2 receptors): 0.055 µM

Cn1c(C(C)(C)C)c/c(=N\C(=O)c2cc(C(F)(F)F)ccc2/C=N\OC(C)(C)C)n1C[C@H]1CCCO1 [Example 109, 2-[(Z)-(tert-butoxyimino)methyl]-N-{(3E)-5-tert-butyl-1-methyl-2-[(2R)-tetrahydrofuran-2-ylmethyl]-1,2-dihydro-3H-pyrazol-3-ylidene}-5-(trifluoromethyl)benzamide]
Ki (human CB2 receptors): 0.023 µM | Ki (rat CB2 receptors): 0.015 µM
